According to patent US20250302842A1, “HETEROCYCLIC COMPOUNDS USEFUL FOR TREATMENT OF CANCERS” (JUBILANT EPIPAD LLC, priority 2020, published 2025):

Each molecule was assayed against T1, PAD4 enzyme (Homo sapiens (Human), UniProt Q9UM07) (assay: Ammonia Release Biochemical Assay (citrullination detected via ammonia release)). Conditions: BAEE substrate, 60-min preincubation, read-out: NH3 release.
T1 sequence (Q9UM07 whole entry): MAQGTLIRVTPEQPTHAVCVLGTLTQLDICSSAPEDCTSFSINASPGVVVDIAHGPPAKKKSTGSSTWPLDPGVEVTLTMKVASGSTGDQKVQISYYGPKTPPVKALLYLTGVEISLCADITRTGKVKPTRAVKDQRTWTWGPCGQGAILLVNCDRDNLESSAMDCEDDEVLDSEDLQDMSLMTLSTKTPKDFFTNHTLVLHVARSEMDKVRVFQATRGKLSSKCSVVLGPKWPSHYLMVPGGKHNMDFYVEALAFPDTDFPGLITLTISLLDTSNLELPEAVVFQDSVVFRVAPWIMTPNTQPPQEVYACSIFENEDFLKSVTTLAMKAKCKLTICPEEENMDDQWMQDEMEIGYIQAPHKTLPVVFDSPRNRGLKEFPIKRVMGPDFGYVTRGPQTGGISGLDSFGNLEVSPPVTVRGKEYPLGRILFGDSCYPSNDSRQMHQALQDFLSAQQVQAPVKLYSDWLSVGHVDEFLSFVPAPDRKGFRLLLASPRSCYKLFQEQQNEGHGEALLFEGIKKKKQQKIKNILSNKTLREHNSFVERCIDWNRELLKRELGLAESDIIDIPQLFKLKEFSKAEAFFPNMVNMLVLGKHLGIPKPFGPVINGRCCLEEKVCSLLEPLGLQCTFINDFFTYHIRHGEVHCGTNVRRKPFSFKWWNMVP
Experimental: Ammonia Release Biochemical Assay
Citrullination assay was detected via ammonia release. PAD4 enzyme was diluted to 120 nM in assay buffer (100 mM HEPES, 50 mM NaCl, 2 mM DDT, 0.6 mg/mL BSA, pH 7.4) added to wells containing various concentration of compound or DMSO vehicle (1% final) in black 384 well plate. Following a 60-min preincubation at room temperature, the reaction was initiated by the addition of substrate (1.5 mM BAEE in 200 mM HEPES, 50 mM NaCl, 350 uM CaCl2, 2 mM, pH 7.4). The reaction was stopped after 60 min by addition of stop/detection buffer containing 50 mM EDTA, 2.6 mM of o-phthaladehyde and 2.6 mM DTT. Assay was incubated at room temperature for 90 min before measuring fluorescence's (2ex 405/2em 460 nm) on Tecan reader. IC50 was calculated using XL-fit software model 205. (Ref: Nat Chem Biol. 2015 March;11 (3): 189-91).
`N[C@@H]1CCCN(C(=O)c2cc3c4c(c2)nc(-c2cc5ccccc5n2CC2CC2)n4CCO3)C1` [Example 1, (R)-(3-aminopiperidin-1-yl)(2-(1-(cyclopropylmethyl)-1H-indol-2-yl)-3,4-dihydro-5-oxa-1,2a-diazaacenaphthylen-7-yl)methanone] showed an IC50 of at most 1000 nM.
`COc1ccc(Cn2c(-c3nc4cc(C(=O)N5CCC[C@@H](N)C5)cc5c4n3CCO5)cc3cccc(Cl)c32)cc1` [Example 39, (R)-(3-aminopiperidin-1-yl)(2-(7-chloro-1-(4-methoxybenzyl)-1H-indol-2-yl)-3,4-dihydro-5-oxa-1,2a-diazaacenaphthylen-7-yl)methanone] was tested, and the IC50 was at most 1000 nM.
Molecule `N[C@@H]1CCCN(C(=O)c2cc3c4c(c2)nc(-c2cc5ccccc5n2CC2CCC2)n4CCO3)C1` [Example 41, (R)-(3-aminopiperidin-1-yl)(2-(1-(cyclobutylmethyl)-1H-indol-2-yl)-3,4-dihydro-5-oxa-1,2a-diazaacenaphthylen-7-yl)methanone] has an IC50 of at most 1000 nM.
`N[C@@H]1CCCN(C(=O)c2cc3c4c(c2)nc(-c2cc5cccc(Cl)c5n2CC2CCC2)n4CCO3)C1` [Example 53, (R)-(3-aminopiperidin-1-yl)(2-(7-chloro-1-(cyclobutylmethyl)-1H-indol-2-yl)-3,4-dihydro-5-oxa-1,2a-diazaacenaphthylen-7-yl)methanone] was tested, and the IC50 was at most 1000 nM.

Each molecule was assayed against T1, PAD4 enzyme (assay: FP Binding assay). Conditions: fluorescein labelled probe JPAD-00085, 60 minutes.
Experimental: Binding of compounds with PAD4 enzyme was detected by FP assay. PAD4 enzyme was diluted to 1 uM in assay buffer (100 mM HEPES, 50 mM NaCl, 1 mM DTT, 5% Glycerol and 1 mM CHAPS) and added to wells containing various concentration of compounds or DMSO vehicle (1%) in a 384 well black plate. 10 nM of fluorescein labelled probe (JPAD-00085) was added to the plate. Assay plate was incubated for 60 minutes at room temperature before measuring FP reading at FP module (ex 485/2em 535 nm) on Pherastar. IC50 was calculated using XL-fit software model 205. (Ref: Nat Chem Biol. 2015 March; 11 (3): 189-91).
For `N[C@@H]1CCCN(C(=O)c2cc3c4c(c2)nc(-c2cc5ccccc5n2Cc2ccncc2)n4CCO3)C1` [Example 10, (R)-(3-aminopiperidin-1-yl)(2-(1-(pyridin-4-ylmethyl)-1H-indol-2-yl)-3,4-dihydro-5-oxa-1,2a-diazaacenaphthylene-7-yl)methanone], the IC50 was at most 1000 nM.
`CCc1c(-c2nc3cc(C(=O)N4CCC[C@@H](N)C4)cc4c3n2CCO4)sc2ccccc12` [Example 12, (R)-(3-aminopiperidin-1-yl)(2-(3-ethylbenzo[b]thiophen-2-yl)-3,4-dihydro-5-oxa-1,2a-diazaacenaphthylen-7-yl)methanone] showed an IC50 of at most 1000 nM.
With `NCC1CCCCN1C(=O)c1cc2c3c(c1)nc(-c1cc4ccccc4n1CC1CC1)n3CCO2` (stereo not shown) [Example 4, (2-(aminomethyl)piperidin-1-yl)(2-(1-(cyclopropylmethyl)-1H-indol-2-yl)-3,4-dihydro-5-oxa-1,2a-diazaacenaphthylen-7-yl)methanone] the IC50 was at least 10000 nM.
`COc1ccc2cc(-c3nc4cc(C(=O)N5CCC[C@@H](N)C5)cc5c4n3CCN5)n(CC3CC3)c2c1` [Example 73, (R)-(3-aminopiperidin-1-yl)(2-(1-(cyclopropylmethyl)-6-methoxy-1H-indol-2-yl)-5,6-dihydro-4H-imidazo[1,5,4-de]quinoxalin-8-yl)methanone] gave an IC50 of at most 1000 nM.
Work on `COc1ccc(Cn2c(-c3nc4cc(C(=O)N5CCC[C@@H](N)C5)cc5c4n3CCO5)cc3ccccc32)cc1` [Example 19, (R)-(3-aminopiperidin-1-yl)(2-(1-(4-methoxybenzyl)-1H-indol-2-yl)-3,4-dihydro-5-oxa-1,2a-diazaacenaphthylen-7-yl)methanone] yielded an IC50 of at most 1000 nM.
In the case of `N[C@@H]1CCCN(C(=O)c2cc3c4c(c2)nc(-c2cc5cc(F)c(F)cc5n2CC2CC2)n4CCN3)C1` [Example 77, (R)-(3-aminopiperidin-1-yl)(2-(1-(cyclopropylmethyl)-5,6-difluoro-1H-indol-2-yl)-5,6-dihydro-4H-imidazo[1,5,4-de]quinoxalin-8-yl)methanone], the IC50 is reported as at most 1000 nM.
Work on `N[C@@H]1CCCN(C(=O)c2cc3c4c(c2)nc(-c2cc5cc(F)ccc5n2CC2CC2)n4CCN3)C1` [Example 64, R-(3-aminopiperidin-1-yl)(2-(1-(cyclopropylmethyl)-5-fluoro-1H-indol-2-yl)-5,6-dihydro-4H-imidazo[1,5,4-de]quinoxalin-8-yl)methanone] yielded an IC50 of at most 1000 nM.
`N[C@@H]1CCCN(C(=O)c2cc3c4c(c2)nc(-c2cc5ccccc5n2CC2CC2)n4CCN3)C1` [Example 63, (R)-(3-aminopiperidin-1-yl)(2-(1-(cyclopropylmethyl)-1H-indol-2-yl)-5,6-dihydro-4H-imidazo[1,5,4-de]quinoxalin-8-yl)methanone] was tested, and the IC50 was at most 1000 nM.
`CN1CCn2c(-c3cc4ccccc4n3CC3CC3)nc3cc(C(=O)N4CCC[C@@H](N)C4)cc1c32` [Example 72, R-(3-aminopiperidin-1-yl)(2-(1-(cyclopropylmethyl)-1H-indol-2-yl)-6-methyl-5,6-dihydro-4H-imidazo[1,5,4-de]quinoxalin-8-yl)methanone] gave an IC50 of at most 1000 nM.
In the case of `N[C@@H]1CCCN(C(=O)c2cc3c4c(c2)nc(-c2cc5ccccc5n2Cc2ccccn2)n4CCO3)C1` [Example 11, (R)-(3-aminopiperidin-1-yl)(2-(1-(pyridine-2-ylmethyl)-1H-indol-2-yl)-3,4-dihydro-5-oxa-1,2a-diazaacenaphthylen-7-yl)methanone], the IC50 is reported as at most 1000 nM.
For `N[C@@H]1CCCN(C(=O)c2cc3c4c(c2)nc(-c2cc5ccccc5n2Cc2ccccc2F)n4CCO3)C1` [Example 14, (R)-(3-aminopiperidin-1-yl)(2-(1-(2-fluorobenzyl)-1H-indol-2-yl)-3,4-dihydro-5-oxa-1,2a-diazaacenaphthylene-7-yl)methanone], the IC50 was at most 1000 nM.
Molecule `Cc1cccc2cc(-c3nc4cc(C(=O)N5CCC[C@@H](N)C5)cc5c4n3CCO5)n(CC3CC3)c12` [Example 8, (R)-(3-aminopiperidin-1-yl)(2-(1-(cyclopropylmethyl)-7-methyl-1H-indol-2-yl)-3,4-dihydro-5-oxa-1,2a-diazaacenaphthylen-7-yl)methanone] has an IC50 of at most 1000 nM.
